Laboratory results reported in publication PMC12588083, “Validated antimalarial drug target discovery using genome-scale metabolic modeling” (Antimicrobial Agents and Chemotherapy, 2025).

Key:
[1] = test system: synchronised Plasmodium falciparum 3D7 cultures; test: In vitro flux measurements of glucose and amino acids in spent media; assay type: cell-based; conditions: ± SD, positive = into infected red blood cell, negative = efflux into media; for flux 6 - 18 hps: early to mid-ring stage; for flux 42 - 48 hps: late schizont stage; for flux 30 - 36 hps: late trophozoite stage
Protocol: Cultures were synchronized with 5% sorbitol ([36]). Synchronized cultures with a total volume of 18 mL at 1% parasitemia and 5% hematocrit were placed in nonvented 75 cm^2 tissue culture flasks (Nunclon). Red blood cells at 5% hematocrit were used as control. One milliliter of culture was collected at time 0 and every 6 hours until 48 hours post synchronization. The collected sample was placed in a 1.5 mL microcentrifuge tube and centrifuged at 3,000 RPM for 2 minutes. The spent media were collected and stored at −80°C prior to analysis. Three biological replicates were analyzed.
A glucose assay on the spent media was performed using a glucose oxidase-peroxidase format assay kit (Megazyme). Amino acid concentrations in the spent media were determined using an Ultimate 3000 High-Performance Liquid Chromatography system (Dionex, UK). A ramp gradient reverse-phase chromatography was done with an Acclaim 120 C18 (Dionex, UK) 100 × 2.1 mm column (3 µm particle size, 120 Å pore size) stationary phase. Eluent A (10 mM Na2HPO4, 10 mM Na2HB4O7·10 H2O, 0.5 mM NaN3, pH 8.2) and eluent B (45% methanol [vol/vol] 45% acetonitrile [vol/vol] in water) constituted the mobile phase (Table S1).
Samples were derivatized manually within 10 minutes prior to chromatography. The derivatization procedure was done in a 1.5 mL microcentrifuge tube at room temperature by adding the following reagents in this particular order:
Spent media for both infected and uninfected (control) samples were assayed for glucose and amino acid concentrations as detailed above. The net metabolite flux from time 0 ( t0 ) to time n ( tn ) was calculated using the formula:
fluxt0-tn=vt0×∆Ci-∆Cu/gDWt0×∆t
The parasite mass gDWt0 was determined using the calculated number of parasites based on the parasitemia, hematocrit, and the volume at t0 :
In this case, it was assumed for simplicity that each infected RBC contained only one parasite. […] Flux calculations were done to represent the three main blood stage forms: the change in concentration from t6 to t18 was used to calculate the early to mid-ring stage flux, from t30 to t36 for the late trophozoite, and from t42 to t48 for the late schizont stage. […] A positive flux represents the entry of metabolites into the model, while a negative flux represents the movement of metabolites into the external environment.
Supplementary Table 5 Experimental glucose and amino acid flux measurements. […] A positive flux indicates movement of the metabolite into the infected red blood cell while a negative flux indicates efflux of the metabolite into the media.

[2] = target: recombinant PfUCK (P. falciparum UMP-CMP kinase, PfUCK-Δ23) (Plasmodium falciparum, UniProt Q8I231); test: Inhibition constant (Ki) determination, coupled PK/LDH NADH assay, recombinant PfUCK; assay type: biochemical; conditions: for Ki—PfUCK: Table 4, benzoylacetonitrile derivatives, 1 mM CMP, competitive equation
Sequence of recombinant PfUCK (P. falciparum UMP-CMP kinase, PfUCK-Δ23) (Q8I231 entry or part of it, stated change not applied): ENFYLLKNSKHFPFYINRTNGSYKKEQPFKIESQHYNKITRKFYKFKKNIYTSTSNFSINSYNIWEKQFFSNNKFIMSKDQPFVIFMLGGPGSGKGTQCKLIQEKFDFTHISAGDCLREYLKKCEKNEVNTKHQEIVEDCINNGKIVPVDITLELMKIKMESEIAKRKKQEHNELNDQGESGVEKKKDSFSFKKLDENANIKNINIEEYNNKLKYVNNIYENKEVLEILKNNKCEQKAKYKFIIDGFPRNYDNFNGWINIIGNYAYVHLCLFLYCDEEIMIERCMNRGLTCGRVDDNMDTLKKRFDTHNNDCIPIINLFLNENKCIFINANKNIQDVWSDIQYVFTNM
Protocol: The hydrophobic core at the protein’s N-terminus may cause poor expression and low solubility in E. coli. Therefore, a truncated gene was created where the ORF began at amino acid residues 24–371, encoding a 348 amino acid protein. […] Briefly, protein expression was induced with isopropyl-D-thiogalactoside, incubated at 16°C with shaking at 200 RPM for 20 hours, and the cell pellet resuspended in binding buffer (50 mM Tris [pH 7.6], 300 mM NaCl, 20 mM imidazole, 5% glycerol, and 0.075% β-mercaptoethanol), with cell disruption using an Avestin C3 Cell Disrupter. Cell debris was removed, and the UCK was purified by Ni-NTA affinity purification. The protein was eluted from the column using a linear gradient of imidazole ([…]) in elution buffer (50 mM Tris [pH 7.6], 300 mM NaCl, 5% glycerol, and 0.075% β-mercaptoethanol). […] The concentrated protein was then stored at −70°C in a storage buffer (25 mM Tris-HCl, 50 mM KCl, and 20% glycerol; pH 7.0).
The final concentration of dimethyl sulfoxide (Merck, Catalog number 472301) in the assay reaction was maintained at 1%.

[3] = test system: P. falciparum 3D7; test: Antiplasmodial activity (IC50), SYBR Green fluorescence, 48 hours; assay type: cell-based, Plasmodium falciparum
Protocol: P. falciparum 3D7 parasites underwent two synchronization cycles with D-sorbitol initiating the inhibitor testing. Parasitemia and hematocrit were adjusted to 0.5% and 3%, respectively. Synchronized ring parasites were cultured in 96-well plates in complete RPMI medium with varying inhibitor concentrations. Inhibitor stock solutions, mostly at 100 mM, were prepared in DMSO. […] Triplicate wells were prepared for each compound. Negative controls included wells with uninfected red cells (3% hematocrit) in complete RPMI medium.
Culture plates were incubated in a chamber with controlled gas conditions at 37°C. After 48 hours, parasites were quantified using a fluorescence-based assay with SYBR Green dye as previously described ([51]). Lysis buffer containing SYBR Green was added to each well, and plates were incubated at room temperature for 45 minutes and protected from the light. Fluorescence was measured using a microplate reader (POLARstar OPTIMA, BMG Labtech) with excitation at 485 nm and detection at 520 nm. Background fluorescence of uninfected red cells was subtracted, and dose-response curves were plotted against inhibitor concentration. IC50 values were determined using nonlinear regression curve fitting in GraphPad Prism software.

[4] = Plasmodium falciparum, 3D7, 48 h, Supplementary Table 7, benzoylacetonitrile derivatives
[5] = Supplementary Table 7, benzoylacetonitrile derivatives

Row | SMILES | flux 6 - 18 hps [1] | flux 42 - 48 hps [1] | flux 30 - 36 hps [1] | Ki—PfUCK [2] | also measured
1 | N[C@@H](CC(=O)O)C(=O)O [L-Aspartic acid] | 0.0048 ± 0.011 mmol/gDW/hr | 0.019 ± 0.058 mmol/gDW/hr | 0.00 ± 0.029 mmol/gDW/hr |  | 
2 | N#CCC(=O)c1cc(C(F)(F)F)cc(C(F)(F)F)c1 [Compound C83] |  |  |  |  | Ki [2]: 4.66 ± 0.29 µM; IC50 [3, 4]: > 310 µM; IC50 [3, 5]: 317 ± 50.8 µM
3 | N#CCC(=O)c1cccc(C(F)(F)F)c1 [Compound C69] |  |  |  | No inhibition at 1 mM | 
4 | COC(=O)c1ccc(C(=O)CC#N)cc1 [Compound C9] |  |  |  | insoluble | 
5 | N#CCC(=O)c1ccc(Cl)cc1 [Compound C10] |  |  |  | No inhibition at 1 mM | 
6 | NC(=O)CC[C@H](N)C(=O)O [L-Glutamine] | 0.00 ± 0.023 mmol/gDW/hr | 0.36 ± 0.72 mmol/gDW/hr | -0.40 ± 0.63 mmol/gDW/hr |  | 
7 | N[C@@H](CO)C(=O)O [L-Serine] | -0.019 ± 0.021 mmol/gDW/hr | 0.062 ± 0.11 mmol/gDW/hr | -0.062 ± 0.091 mmol/gDW/hr |  | 
8 | N[C@@H](Cc1c[nH]cn1)C(=O)O [L-Histidine] | -0.0073 ± 0.013 mmol/gDW/hr | 0.066 ± 0.076 mmol/gDW/hr | -0.066 ± 0.095 mmol/gDW/hr |  | 
9 | N#CCC(=O)c1cc(Cl)cc(Cl)c1 [Compound C62] |  |  |  | No inhibition at 1 mM | 
10 | N#CCC(=O)c1ccc(-c2ccccc2)cc1 [Compound C79] |  |  |  | No inhibition at 1 mM | 
11 | CSCC[C@H](N)C(=O)O [L-Methionine] | 0.0024 ± 0.0082 mmol/gDW/hr | 0.028 ± 0.025 mmol/gDW/hr | -0.028 ± 0.025 mmol/gDW/hr |  | 
12 | N#CCC(=O)c1ccc(CN2CCOCC2)cc1 [Compound C77] |  |  |  | No inhibition at 1 mM | 
13 | CC[C@H](C)[C@H](N)C(=O)O [L-Isoleucine] | 0.017 ± 0.023 mmol/gDW/hr | 0.081 ± 0.14 mmol/gDW/hr | -0.062 ± 0.14 mmol/gDW/hr |  | 
14 | N#CCC(=O)c1cccc(Br)c1 [Compound C37] |  |  |  | no inhibition at 1 mM | 
15 | N[C@@H](Cc1ccc(O)cc1)C(=O)O [L-Tyrosine] | -0.0051 ± 0.0044 mmol/gDW/hr | -0.046 ± 0.17 mmol/gDW/hr | -0.031 ± 0.031 mmol/gDW/hr |  | 
16 | C[C@H](N)C(=O)O [L-Alanine] | -0.023 ± 0.017 mmol/gDW/hr | 0.00 ± 0.024 mmol/gDW/hr | -0.041 ± 0.036 mmol/gDW/hr |  | 
17 | NC(=O)C[C@H](N)C(=O)O [L-Asparagine] | -0.0094 ± 0.011 mmol/gDW/hr | 0.070 ± 0.17 mmol/gDW/hr | -0.10 ± 0.12 mmol/gDW/hr |  | 
18 | C=CC(=O)N1CCC(C(=O)NCc2cc(=O)n3ccccc3n2)CC1 [Compound C58] |  |  |  |  | Ki [2]: 2.11 ± 0.21 µM; IC50 ([3]; Plasmodium falciparum, 3D7, 48 h, Table 5): > 1000 µM

Row | SMILES | flux 6 - 18 hps [1] | flux 42 - 48 hps [1] | flux 30 - 36 hps [1] | Ki—PfUCK [2] | also measured
19 | COc1ccc(C(=O)CC#N)cc1 [Compound C8] |  |  |  | no inhibition at 1 mM | 
20 | COc1cccc(C(=O)CC#N)c1 [Compound C65] |  |  |  | no inhibition at 1 mM | 
21 | NCCCC[C@H](N)C(=O)O [L-Lysine] | 0.00 ± 0.064 mmol/gDW/hr | 0.073 ± 0.29 mmol/gDW/hr | 0.038 ± 0.20 mmol/gDW/hr |  | 
22 | N#CCC(=O)c1cccc([N+](=O)[O-])c1 [Compound C80] |  |  |  | No inhibition at 1 mM | 
23 | CC(C)C[C@H](N)C(=O)O [L-Leucine] | 0.28 ± 0.065 mmol/gDW/hr | 0.047 ± 0.10 mmol/gDW/hr | -0.14 ± 0.070 mmol/gDW/hr |  | 
24 | N=C(N)NCCC[C@H](N)C(=O)O [L-Arginine] | 0.072 ± 0.11 mmol/gDW/hr | 0.22 ± 0.35 mmol/gDW/hr | -0.15 ± 0.49 mmol/gDW/hr |  | 
25 | N[C@@H](CCC(=O)O)C(=O)O [L-Glutamic acid] | -0.019 ± 0.0081 mmol/gDW/hr | 0.0047 ± 0.077 mmol/gDW/hr | -0.056 ± 0.024 mmol/gDW/hr |  | 
26 | N#CCC(=O)c1cccc(Cl)c1Cl [Compound C64] |  |  |  | No inhibition at 1 mM | 
27 | Cc1cccc(C(=O)CC#N)c1 [Compound C66] |  |  |  | No inhibition at 1 mM | IC50 [3, 4]: > 310 µM; IC50 [3, 5]: 310 ± 57.9 µM
28 | OC[C@H]1OC(O)[C@H](O)[C@@H](O)[C@@H]1O (stereo partly drawn) [D-Glucose] | 1.3 ± 0.82 mmol/gDW/hr | 0.60 ± 0.21 mmol/gDW/hr | 3.2 ± 1.2 mmol/gDW/hr |  | 
29 | N[C@@H](Cc1c[nH]c2ccccc12)C(=O)O [L-Tryptophan] | 0.0026 ± 0.0045 mmol/gDW/hr | 0.010 ± 0.024 mmol/gDW/hr | 0.010 ± 0.036 mmol/gDW/hr |  | 
30 | C[C@@H](O)[C@H](N)C(=O)O [L-Threonine] | -0.014 ± 0.026 mmol/gDW/hr | 0.028 ± 0.099 mmol/gDW/hr | -0.038 ± 0.050 mmol/gDW/hr |  | 
31 | NCC(=O)O [Glycine] | -0.014 ± 0.028 mmol/gDW/hr | 0.037 ± 0.17 mmol/gDW/hr | -0.0093 ± 0.12 mmol/gDW/hr |  | 
32 | CC(C)[C@H](N)C(=O)O [L-Valine] | -0.036 ± 0.098 mmol/gDW/hr | 0.024 ± 0.12 mmol/gDW/hr | -0.0096 ± 0.022 mmol/gDW/hr |  | 
33 | N#CCC(=O)c1cncc(Br)c1 [Compound C67] |  |  |  |  | Ki [2]: 4.38 ± 1.45 µM; IC50 [3, 4]: 531 ± 61.2 µM
34 | N#CCC(=O)c1ccccc1 [Compound C11] |  |  |  | No inhibition at 1 mM | 
35 | N[C@@H](Cc1ccccc1)C(=O)O [L-Phenylalanine] | -0.0099 ± 0.016 mmol/gDW/hr | 0.025 ± 0.023 mmol/gDW/hr | -0.035 ± 0.0086 mmol/gDW/hr |  | 
